Among the data in ChEMBL document CHEMBL3039007, “Structure-based identification of OATP1B1/3 inhibitors” (Mol Pharmacol, 2013) are residual activity values, retold here.

The term residual activity denotes the signal under treatment as a percentage of the control signal.

In series [1] the target is T1, Solute carrier organic anion transporter family member 1B3 (Homo sapiens, UniProt Q9NPD5).
T1 sequence (Q9NPD5 whole entry): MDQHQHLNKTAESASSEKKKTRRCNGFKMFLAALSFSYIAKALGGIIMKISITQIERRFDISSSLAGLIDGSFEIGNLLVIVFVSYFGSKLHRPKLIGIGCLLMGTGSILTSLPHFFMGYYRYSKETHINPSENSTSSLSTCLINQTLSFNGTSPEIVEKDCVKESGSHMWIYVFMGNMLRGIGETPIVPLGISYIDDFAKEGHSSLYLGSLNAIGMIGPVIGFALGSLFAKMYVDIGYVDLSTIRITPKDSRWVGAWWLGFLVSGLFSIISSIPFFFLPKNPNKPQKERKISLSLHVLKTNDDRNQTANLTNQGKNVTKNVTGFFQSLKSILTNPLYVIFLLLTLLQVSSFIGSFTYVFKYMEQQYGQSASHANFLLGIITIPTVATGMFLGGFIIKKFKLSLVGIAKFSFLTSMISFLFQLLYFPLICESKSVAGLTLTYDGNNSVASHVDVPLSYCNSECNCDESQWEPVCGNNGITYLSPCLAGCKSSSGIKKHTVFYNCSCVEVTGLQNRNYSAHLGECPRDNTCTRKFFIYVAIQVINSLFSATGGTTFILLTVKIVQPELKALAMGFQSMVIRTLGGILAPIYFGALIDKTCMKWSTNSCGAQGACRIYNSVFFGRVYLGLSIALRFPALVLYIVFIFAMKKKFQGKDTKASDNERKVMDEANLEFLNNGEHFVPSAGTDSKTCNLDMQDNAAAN
The note with it: chinese hamster, cho, 10 µM.

Series [2] has as its target T2, Solute carrier organic anion transporter family member 1B1 (Homo sapiens, UniProt Q9Y6L6).
T2 sequence (Q9Y6L6 whole entry): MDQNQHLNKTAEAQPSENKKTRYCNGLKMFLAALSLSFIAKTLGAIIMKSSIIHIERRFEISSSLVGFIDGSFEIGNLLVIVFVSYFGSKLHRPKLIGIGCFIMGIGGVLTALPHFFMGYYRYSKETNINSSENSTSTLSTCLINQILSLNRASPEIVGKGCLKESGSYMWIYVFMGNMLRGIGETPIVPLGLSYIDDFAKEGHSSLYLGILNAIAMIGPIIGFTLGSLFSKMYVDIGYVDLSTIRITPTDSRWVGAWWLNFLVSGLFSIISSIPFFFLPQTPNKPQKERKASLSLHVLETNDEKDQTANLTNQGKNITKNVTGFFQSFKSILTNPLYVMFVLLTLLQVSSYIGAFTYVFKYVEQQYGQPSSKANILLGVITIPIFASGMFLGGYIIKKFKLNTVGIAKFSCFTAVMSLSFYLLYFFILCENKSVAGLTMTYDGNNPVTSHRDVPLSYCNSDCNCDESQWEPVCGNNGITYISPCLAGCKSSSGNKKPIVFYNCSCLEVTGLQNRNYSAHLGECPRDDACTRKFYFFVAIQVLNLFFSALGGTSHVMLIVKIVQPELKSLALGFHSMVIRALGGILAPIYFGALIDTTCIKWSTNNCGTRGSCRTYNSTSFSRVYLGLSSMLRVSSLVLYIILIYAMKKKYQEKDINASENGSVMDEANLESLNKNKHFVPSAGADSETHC
Particulars: chinese hamster, cho, 10 µM.

SMILES strings stand for the structures.

As for `NCCCC(=O)O` [GAMMA-AMINOBUTYRIC ACID], the residual activity is recorded as 81.28% in series [1] and 56.63% in series [2].
For the compound `COC(=O)c1c(OC)cc2c(c1C)Oc1c(Cl)c(OC(C)=O)c(Cl)c(C)c1C(=O)O2` [GANGLEOIDIN ACETATE], the residual activity was found to be 54.62% in series [1] and 34.6% in series [2].
The matching figures for `COc1c(N2CCNC(C)C2)c(F)cc2c(=O)c(C(=O)O)cn(C3CC3)c12` (stereo not drawn) [GATIFLOXACIN]: 96.61% and 121.9%.
The matching figures for `CC(=O)O[C@@H]1C[C@H]2C(C)(C)C(=O)C=C[C@]2(C)[C@H]2CC[C@@]3(C)[C@H](c4ccoc4)OC(=O)[C@H]4O[C@]43[C@@]21C` [GEDUNIN]: 105.4% and 65.45%.
On the same counts, the results for `CO/N=C1\CN(c2nc3c(cc2F)c(=O)c(C(=O)O)cn3C2CC2)CC1CN.CS(=O)(=O)O` (stereo not drawn) [GEMIFLOXACIN MESYLATE] are 108.8% and 102.7%.
Take `CN[C@@H]1[C@@H](O)[C@@H](O[C@@H]2[C@@H](O)[C@H](O[C@H]3O[C@H]([C@@H](C)O)[C@@H](O)[C@H](O)[C@H]3N)[C@@H](N)C[C@H]2N)OC[C@]1(C)O` [GENETICIN]: the residual activity is given as 105.6% in series [1] and 83.57% in series [2].
Take `COc1cc(O)c2c(=O)cc(-c3ccc(O)cc3)oc2c1` [GENKWANIN]: the figures for the residual activity in series [1] and in series [2] were 107% and 116.7%, respectively.
The matching figures for `CN(C)c1ccc(C(=C2C=CC(=[N+](C)C)C=C2)c2ccc(N(C)C)cc2)cc1.[Cl-]` [GENTIAN VIOLET]: 92.5% and 109.6%.
With `O=C(O)c1cc(O)ccc1O` [GENTISIC ACID], the residual activity came to 104% in series [1] and 84.57% in series [2].
`CCCCCC/C=C\CCCCCCCc1cccc(O)c1C(=O)O` [GINGKOLIC ACID]: the residual activity came out at 93.22% in series [1] and 135.9% in series [2].
On the same counts, the results for `COc1cc(O)c2c(=O)cc(-c3ccc(OC)c(-c4c(O)cc(O)c5c(=O)cc(-c6ccc([O-])cc6)oc45)c3)oc2c1.[K+]` [GINKGETIN, K salt] are 46.72% and 46.45%.
In the case of `C[C@@H]1C(=O)O[C@H]2C[C@@]34[C@H]5C[C@@H](C(C)(C)C)[C@]36[C@@H](OC(=O)[C@@H]6O)O[C@@]4(C(=O)O5)[C@]21O` [GINKGOLIDE A], the residual activity in series [1] was found to be 113.8%; in series [2], 103.7%.
The matching figures for `CC(=O)O[C@H]1CC[C@@]2(C)[C@H](CC[C@@H]3[C@@H]2CC[C@]2(C)[C@@H](C4=CC(=O)OC4)[C@@H](OC(C)=O)C[C@]32O)C1` [GITOXIGENIN DIACETATE]: 118.5% and 111.6%.
On the same counts, the results for `C[C@H]1O[C@@H](O[C@H]2[C@@H](O)C[C@H](O[C@H]3[C@@H](O)C[C@H](O[C@H]4CC[C@@]5(C)[C@H](CC[C@@H]6[C@@H]5CC[C@]5(C)[C@@H](C7=CC(=O)OC7)[C@@H](O)C[C@]65O)C4)O[C@@H]3C)O[C@@H]2C)C[C@H](O)[C@@H]1O` [GITOXIN] are 102.2% and 103.4%.
The matching figures for `O=C(OCC(O)CO)c1ccccc1Nc1ccnc2cc(Cl)ccc12` (stereo not drawn) [GLAFENINE]: 130.7% and 188.5%.
On to `Cc1ccc(S(=O)(=O)NC(=O)NN2CC3CCCC3C2)cc1` (stereo not drawn) [GLICLAZIDE], for which the residual activity was 113.3% in series [1] and 106.3% in series [2].
The matching figures for `OC[C@@H](O)[C@@H](O[C@@H]1O[C@H](CO)[C@@H](O)[C@H](O)[C@H]1O)[C@H](O)[C@@H](O)CO` [GLUCITOL-4-GUCOPYANOSIDE]: 90.65% and 90.99%.
For `O=C1O[C@H](CO)[C@@H](O)[C@H](O)[C@H]1O` [GLUCONOLACTONE], the values for the residual activity in series [1] and in series [2] were 89.12% and 81.83%, respectively.
On to `Cl.N[C@H]1C(O)O[C@H](CO)[C@@H](O)[C@@H]1O` (stereo partly drawn) [GLUCOSAMINE HYDROCHLORIDE], for which the figures for the residual activity in series [1] and in series [2] were 87.62% and 60.72%, respectively.
The matching figures for `N[C@@H](CCC(=O)N[C@@H](CS)C(=O)NCC(=O)O)C(=O)O` [GLUTATHIONE]: 87.82% and 67.16%.
The matching figures for `CC(=O)O[C@@H]1[C@H]2CC[C@H]3[C@@](C)(O)[C@@H]4C[C@H](O)C(C)(C)[C@@]4(O)[C@H](O)C[C@@]13C[C@@]2(C)O` [GRAYANOTOXIN I]: 95.98% and 79.68%.
The matching figures for `COC1=CC(=O)C[C@@H](C)[C@]12Oc1c(Cl)c(OC)cc(OC)c1C2=O` [GRISEOFULVIN]: 97.62% and 65.59%.
For the compound `Cc1ccc(C(C)C)cc2c(C)ccc1-2` [GUAIAZULEN], the residual activity in series [1] amounted to 50.28%; in series [2] it was 49.11%.
The matching figures for `CC(=O)O.N=C(N)N/N=C/c1c(Cl)cccc1Cl` [GUANABENZ ACETATE]: 87.6% and 90.81%.
The matching figures for `N=C(N)N` [GUANIDINE]: 100% and 106.5%.
The matching figures for `COP(=S)(OC)SCn1nnc2ccccc2c1=O` [GUTHION]: 101.8% and 109.1%.
In the case of `Cl.O=C(O)C1=CCCNC1` [GUVACINE HYDROCHLORIDE], the figures for the residual activity in series [1] and in series [2] were 108.7% and 115%, respectively.
The matching figures for `Cc1cc(O)c(C=O)c(O)c1C(=O)O` [HAEMATOMMIC ACID]: 81.5% and 54.98%.
As to `COc1cc2c(cc1OC)C(=O)c1ccc(OC)c(OC)c1OCC(=O)C2` [HAEMATOXYLONE, TETRAMETHYL-], the residual activity turned out to be 90.54% in series [1] and 141.3% in series [2].
Regarding `O=C(O)c1ccc(S(=O)(=O)N(Cl)Cl)cc1` [HALAZONE], the residual activity in series [1] was 84.35%; in series [2], 97.95%.
On the same counts, the results for `CC1(C)O[C@@H]2C[C@H]3[C@@H]4CCC5=CC(=O)CC[C@]5(C)[C@@]4(F)[C@@H](O)C[C@]3(C)[C@]2(C(=O)CCl)O1` [HALCINONIDE] are 103.5% and 88.26%.
With `O=C(CCCN1CCC(O)(c2ccc(Cl)cc2)CC1)c1ccc(F)cc1` [HALOPERIDOL], the residual activity is on record as 111.7% in series [1] and 92.15% in series [2].
On the same counts, the results for `COc1ccc2c3c([nH]c2c1)C(C)=NCC3` [HARMALINE] are 115.9% and 92.56%.
As for `CC1=NCCc2c1[nH]c1cc(O)ccc21.Cl` [HARMALOL HYDROCHLORIDE], the values for the residual activity in series [1] and in series [2] were 106.1% and 84.87%, respectively.
The matching figures for `Cc1nccc2c1[nH]c1ccccc12` [HARMAN]: 99.56% and 81.51%.
Consider `COc1ccc2c(c1)[nH]c1c(C)nccc12` [HARMINE], for which the results for the residual activity in series [1] and in series [2] were 101.7% and 105.3%, respectively.
On the same counts, the results for `Cc1nccc2c1[nH]c1cc(O)ccc12.Cl` [HARMOL HYDROCHLORIDE] are 124.7% and 91.2%.
On the same counts, the results for `CC(=O)O[C@H]1CC[C@@]2(C)[C@@H](CC[C@@H]3[C@@H]2CC(=O)[C@]2(C)[C@@H]4[C@H](C[C@@H]32)O[C@]2(CC[C@@H](C)CO2)[C@H]4C)C1` [HECOGENIN ACETATE] are 102% and 103.5%.
On the same counts, the results for `C[C@@H]1CC[C@@]2(OC1)O[C@H]1C[C@H]3[C@@H]4CC[C@@]5(C)C[C@@H](O)CC[C@]5(C)[C@H]4CC(=O)[C@]3(C)[C@H]1[C@@H]2C` [HECOGENIN] are 105.1% and 41.82%.
